# Patent US20080221193A1, “3-AMINO CHROMANE DERIVATIVES” (Wyeth, priority 2006, published 2008)
# Columns and labels:
# human 5-HT1A receptors [1] = target: T1, human 5-HT1A receptors (Homo sapiens, UniProt P08908); experiment: 8-OH-DPAT binding in CHO cells stably transfected with human 5HT1a receptor; conditions: displacement of [3H]8-OH-DPAT, CHO cells with human 5-HT1A; read-out: 5-HT1A Receptor Affinity Ki
# T1 construct: expressed in transfected cells; host or cells: CHO cells, stably transfected
# T1 sequence (P08908 1-422): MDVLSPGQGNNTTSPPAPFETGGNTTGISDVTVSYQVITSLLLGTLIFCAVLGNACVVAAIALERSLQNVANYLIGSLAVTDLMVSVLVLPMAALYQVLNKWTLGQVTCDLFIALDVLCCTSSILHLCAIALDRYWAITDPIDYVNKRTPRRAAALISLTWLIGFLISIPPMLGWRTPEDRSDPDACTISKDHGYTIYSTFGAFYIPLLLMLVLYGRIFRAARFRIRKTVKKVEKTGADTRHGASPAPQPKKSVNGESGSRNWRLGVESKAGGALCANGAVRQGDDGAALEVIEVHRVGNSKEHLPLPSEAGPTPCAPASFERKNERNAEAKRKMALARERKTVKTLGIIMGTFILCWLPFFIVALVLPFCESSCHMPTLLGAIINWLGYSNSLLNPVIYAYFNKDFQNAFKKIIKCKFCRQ
# Description: High affinity for the serotonin 5-HT1A receptor was established by testing the claimed compound's ability to displace [^3H] 8-OH-DPAT (dipropylaminotetralin) from the 5-HT1A serotonin receptor following a modification of the procedure of Hall et al., (J. Neurochem., 1985, 44: 1685) which utilizes CHO cells stably transfected with human 5-HT1A receptors.
# Stabily transfected CHO cells were grown in DMEM containing 10% heat inactivated FBS and non-essential amino acids. Cells were scraped off the plate, transferred to centrifuge tubes, and washed twice by centrifugation (2000 rpm for 10 min., 4° C.) in buffer (50 mM Tris pH 7.5). The resulting pellets were aliquoted and placed at −80° C. On day of assay, the cells were thawed on ice, and resuspended in buffer. The binding assay was performed in a 96 well microtiter plate in a total volume of […].
# Non-specific binding was determined in the presence of […] 5HT, final ligand concentration is 1.5 nM. Following a 30 minute incubation at room temperature, the reaction was terminated by the addition of ice cold buffer and rapid filtration through a GF/B filter presoaked for 30 minutes in 0.5% PEI. Compounds were initially tested in a single point assay to determine percent inhibition at […]. Subsequently, Ki values were determined for compounds defined to be active.
# h5HT1a receptor = target: T2, h5HT1a receptor (Homo sapiens, UniProt P08908); experiment: cAMP RIA in CHO cells stably transfected with the h5HT1a receptor; assay type: cell-based; conditions: for EC50: agonist, forskolin-stimulated cAMP, read-out: 5-HT1A Function cAMP EC50; for IC50: antagonist, reversal of agonist 8-OH-DPAT, read-out: 5-HT1A Function cAMP IC50
# T2 construct: expressed in transfected cells; host or cells: CHO cells, stably transfected
# T2 sequence (P08908 1-422): T1 sequence (P08908 1-422)
# From the text: (§1) The agonist or antagonist activity at 5-HT1A receptors was established by using two different assays. The ^35S-GTPγS binding assay similar to that used by Lazareno and Birdsall (Br. J. Pharmacol., 1993, 109: 1120) was used to determine the test compound's ability to affect the binding of ^35S-GTPγS to membranes containing cloned human 5-HT1A receptors. Agonists produce an increase in binding whereas antagonists produce no increase but rather reverse the effects of the standard agonist 8-OH-DPAT. The test compound's maximum stimulatory effect is represented as the Emax, while its potency is defined by the EC50. The test compound's maximum inhibitory effect is represented as the Imax, while its potency is defined by the IC50. The second assay measured cAMP accumulation upon binding of the ligand to the 5-HT1A receptor. Antagonists block the effect of the standard agonist 8-OH-DPAT resulting in an increase in cAMP accumulation while agonists have the reverse effect. The test compound's maximum stimulatory or inhibitory effect is represented as the Emax while its potency is defined by either IC50 for an antagonist or EC50 for an agonist. [^3H]-8-OH-DPAT was used to determine maximum agonist or antagonist response in both functional assays.
# Stabily transfected CHO cells were grown in DMEM containing 10% heat inactivated FBS and non-essential amino acids. The cells were plated at a density of 10(6) cells per well in a 24 well plate and incubated for 2 days in a CO2 incubator. On the second day, the media was replaced with 0.5 ml treatment buffer (DMEM+25 mM HEPES, 5 mM theophylline, 10 uM pargyline) and incubated 10 minutes at 37° C.
# Wells were treated with forskolin (1 μM final conc) followed immediately by test compound (0.1 and 1 uM for initial screen) and incubated for an additional 10 min at 37° C. The reaction was terminated by removal of the media and addition of 0.5 ml ice cold assay buffer (supplied in RIA kit). Plates were stored at −20° C. prior to assessment of cAMP formation by RIA.
# Compounds shown to have no agonist activities were further analyzed for ability to reverse agonist activity. In separate experiments, 6 concentrations of antagonist were preincubated for 20 minutes prior to the addition of agonist and forskolin. Cells were harvested as described. The cAMP kit was supplied by Amersham and the RIA was performed as per kit instructions.
# h5-HT Transporter = h5-HT Transporter (Homo sapiens, UniProt P31645); experiment: h5-HT Transporter Function (Table 1); assay type: biochemical
# human 5-HT1A receptors [2] = target: T1, human 5-HT1A receptors; experiment: 35S-GTPγS binding assay, membranes containing cloned human 5-HT1A receptors; assay type: biochemical; conditions: read-out: 5-HT1A Function GTPγS IC50
# From the text: as §1
# h5-HT Transporter, sequence (P31645 whole entry): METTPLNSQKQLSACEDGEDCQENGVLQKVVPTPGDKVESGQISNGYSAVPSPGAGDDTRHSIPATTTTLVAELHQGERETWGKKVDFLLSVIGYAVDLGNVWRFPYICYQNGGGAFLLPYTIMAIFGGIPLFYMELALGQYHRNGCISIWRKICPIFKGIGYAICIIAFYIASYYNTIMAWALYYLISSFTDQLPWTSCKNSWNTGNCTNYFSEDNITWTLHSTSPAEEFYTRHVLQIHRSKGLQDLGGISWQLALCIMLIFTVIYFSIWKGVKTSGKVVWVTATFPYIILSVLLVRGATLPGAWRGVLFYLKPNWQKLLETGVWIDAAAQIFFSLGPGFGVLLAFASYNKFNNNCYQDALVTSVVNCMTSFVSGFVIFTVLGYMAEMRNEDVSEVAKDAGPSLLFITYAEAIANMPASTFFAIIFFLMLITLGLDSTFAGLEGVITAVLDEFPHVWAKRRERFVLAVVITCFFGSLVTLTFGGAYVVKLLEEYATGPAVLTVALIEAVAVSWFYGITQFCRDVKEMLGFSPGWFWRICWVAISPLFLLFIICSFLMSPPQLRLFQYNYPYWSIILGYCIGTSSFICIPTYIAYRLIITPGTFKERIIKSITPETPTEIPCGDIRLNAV
smiles,measurement,setting,value
"CNC(=O)c1ccc(OC)c2c1C[C@@H](N(CCCc1c[nH]c3ccc(F)cc13)C1CCC1)CO2 [Example 16, (3R)-3-{cyclobutyl[3-(5-fluoro-1H-indol-3-yl)propyl]amino}-8-methoxychromane-5-methylcarboxamide]",Ki,human 5-HT1A receptors [1],570 nM
same,EC50,h5HT1a receptor,323 nM
same,IC50,h5-HT Transporter,55 nM
same,IC50,human 5-HT1A receptors [2],738 nM
"Cc1ccc(C(N)=O)c2c1OC[C@H](N(CCCc1c[nH]c3ccc(F)cc13)C1CCC1)C2 [Example 20, (3R)-3-{cyclobutyl[3-(5-fluoro-1H-indol-3-yl)propyl]amino}-8-methylchromane-5-carboxamide]",Ki,human 5-HT1A receptors [1],4.26 nM
same,EC50,h5HT1a receptor,51.8 nM
same,IC50,h5-HT Transporter,52.2 nM
same,IC50,human 5-HT1A receptors [2],311 nM
"CCc1ccc(C(N)=O)c2c1OC[C@H](N(CCCc1c[nH]c3ccc(F)cc13)C1CCC1)C2 [Example 21, (3R)-3-{cyclobutyl[3-(5-fluoro-1H-indol-3-yl)propyl]amino}-8-ethylchromane-5-carboxamide]",Ki,human 5-HT1A receptors [1],5.93 nM
same,EC50,h5HT1a receptor,15.6 nM
same,IC50,h5-HT Transporter,90.4 nM
same,IC50,human 5-HT1A receptors [2],724 nM
"CSc1ccc(C(N)=O)c2c1OC[C@H](N(CCCc1c[nH]c3ccc(F)cc13)C1CCC1)C2 [Example 22, (3R)-3-{cyclobutyl[3-(5-fluoro-1H-indol-3-yl)propyl]amino}-8-(methylthio)chromane-5-carboxamide]",Ki,human 5-HT1A receptors [1],16.9 nM
same,IC50,h5HT1a receptor,59.8 nM
same,IC50,h5-HT Transporter,364 nM
same,IC50,human 5-HT1A receptors [2],1180 nM
"CNc1ccc(C(N)=O)c2c1OC[C@H](N(CCCc1c[nH]c3ccc(F)cc13)C1CCC1)C2 [Example 25, (3R)-3-{cyclobutyl[3-(5-fluoro-1H-indol-3-yl)propyl]amino}-8-(methylamino)-chromane-5-carboxamide]",Ki,human 5-HT1A receptors [1],51.5 nM
same,IC50,h5HT1a receptor,140 nM
same,IC50,h5-HT Transporter,137 nM
same,IC50,human 5-HT1A receptors [2],3550 nM
